Measured values reported in ChEMBL document CHEMBL4507320, “Data for DCP probe NVS-MALT1” (2021).

Key:
[1] = system: Receptor-type tyrosine-protein kinase FLT3 (Homo sapiens), P36888 [UNDEFINED MUTATION]; details: Compound concentration 1000.0 nM
[2] = biological target: Casein kinase I isoform alpha (Homo sapiens) (UniProt P48729); details: Compound concentration 1000.0 nM
[3] = biological target: Myosin light chain kinase, smooth muscle (Homo sapiens) (UniProt Q15746); details: Compound concentration 1000.0 nM
[4] = biological target: Serine/threonine-protein kinase Nek2 (Homo sapiens) (UniProt P51955); details: Compound concentration 1000.0 nM
[5] = biological target: Tyrosine-protein kinase ABL1 (Homo sapiens) (UniProt P00519); details: Compound concentration 1000.0 nM
[6] = biological target: Cyclin-dependent kinase 11B (Homo sapiens) (UniProt P21127); details: Compound concentration 1000.0 nM
[7] = biological target: Activated CDC42 kinase 1 (Homo sapiens) (UniProt Q07912); details: Compound concentration 1000.0 nM
[8] = biological target: Non-receptor tyrosine-protein kinase TNK1 (Homo sapiens) (UniProt Q13470); details: Compound concentration 1000.0 nM
[9] = biological target: Serine/threonine-protein kinase N1 (Homo sapiens) (UniProt Q16512); details: Compound concentration 1000.0 nM
[10] = system: Mast/stem cell growth factor receptor Kit (Homo sapiens), P10721 [V559D,V654A]; details: Compound concentration 1000.0 nM
[11] = biological target: Muscarinic acetylcholine receptor M5 (Homo sapiens) (UniProt P08912); details: Compound concentration 10.0 uM
[12] = biological target: Serine/threonine-protein kinase 17B (Homo sapiens) (UniProt O94768); details: Compound concentration 1000.0 nM
[13] = biological target: Mitogen-activated protein kinase 12 (Homo sapiens) (UniProt P53778); details: Compound concentration 1000.0 nM
[14] = biological target: Non-receptor tyrosine-protein kinase TYK2 (Homo sapiens) (UniProt P29597); details: Compound concentration 1000.0 nM
[15] = biological target: Rhodopsin kinase GRK7 (Homo sapiens) (UniProt Q8WTQ7); details: Compound concentration 1000.0 nM
[16] = biological target: RAC-gamma serine/threonine-protein kinase (Homo sapiens) (UniProt Q9Y243); details: Compound concentration 1000.0 nM
[17] = system: Tyrosine-protein kinase ABL1 (Homo sapiens), P00519 [Q252H]; details: Compound concentration 1000.0 nM
[18] = system: Epidermal growth factor receptor (Homo sapiens), P00533 [L861Q]; details: Compound concentration 1000.0 nM
[19] = biological target: Homeodomain-interacting protein kinase 1 (Homo sapiens) (UniProt Q86Z02); details: Compound concentration 1000.0 nM
[20] = biological target: Death-associated protein kinase 3 (Homo sapiens) (UniProt O43293); details: Compound concentration 1000.0 nM
[21] = biological target: Aurora kinase B (Homo sapiens) (UniProt Q96GD4); details: Compound concentration 1000.0 nM
[22] = biological target: Inhibitor of nuclear factor kappa-B kinase subunit epsilon (Homo sapiens) (UniProt Q14164); details: Compound concentration 1000.0 nM
[23] = biological target: Calcium-dependent protein kinase 1 (Plasmodium falciparum) (UniProt P62344); details: Compound concentration 1000.0 nM
[24] = system: Epidermal growth factor receptor (Homo sapiens), P00533 [L858R]; details: Compound concentration 1000.0 nM
[25] = biological target: Dual specificity mitogen-activated protein kinase kinase 4 (Homo sapiens) (UniProt P45985); details: Compound concentration 1000.0 nM
[26] = biological target: Mitogen-activated protein kinase kinase kinase 20 (Homo sapiens) (UniProt Q9NYL2); details: Compound concentration 1000.0 nM
[27] = biological target: Casein kinase I isoform delta (Homo sapiens) (UniProt P48730); details: Compound concentration 1000.0 nM
[28] = biological target: Tyrosine-protein kinase Lck (Homo sapiens) (UniProt P06239); details: Compound concentration 1000.0 nM
[29] = biological target: Discoidin domain-containing receptor 2 (Homo sapiens) (UniProt Q16832); details: Compound concentration 1000.0 nM
[30] = biological target: Ribosomal protein S6 kinase alpha-1 (Homo sapiens) (UniProt Q15418); details: Compound concentration 1000.0 nM
[31] = biological target: Tyrosine-protein kinase HCK (Homo sapiens) (UniProt P08631); details: Compound concentration 1000.0 nM
[32] = biological target: AP2-associated protein kinase 1 (Homo sapiens) (UniProt Q2M2I8); details: Compound concentration 1000.0 nM
[33] = biological target: Calcium/calmodulin-dependent protein kinase type IV (Homo sapiens) (UniProt Q16566); details: Compound concentration 1000.0 nM
[34] = biological target: Protein kinase C delta type (Homo sapiens) (UniProt Q05655); details: Compound concentration 1000.0 nM
[35] = biological target: Dual specificity mitogen-activated protein kinase kinase 5 (Homo sapiens) (UniProt Q13163); details: Compound concentration 1000.0 nM
[36] = system: Epidermal growth factor receptor (Homo sapiens), P00533 [G719S]; details: Compound concentration 1000.0 nM
[37] = biological target: Casein kinase I isoform gamma-1 (Homo sapiens) (UniProt Q9HCP0); details: Compound concentration 1000.0 nM
[38] = biological target: High affinity nerve growth factor receptor (Homo sapiens) (UniProt P04629); details: Compound concentration 1000.0 nM
[39] = biological target: Receptor tyrosine-protein kinase erbB-3 (Homo sapiens) (UniProt P21860); details: Compound concentration 1000.0 nM
[40] = biological target: Serine/threonine-protein kinase pim-2 (Homo sapiens) (UniProt Q9P1W9); details: Compound concentration 1000.0 nM
[41] = biological target: Serine/threonine-protein kinase Sgk3 (Homo sapiens) (UniProt Q96BR1); details: Compound concentration 1000.0 nM
[42] = biological target: Serine/threonine-protein kinase PLK2 (Homo sapiens) (UniProt Q9NYY3); details: Compound concentration 1000.0 nM
[43] = biological target: Homeodomain-interacting protein kinase 4 (Homo sapiens) (UniProt Q8NE63); details: Compound concentration 1000.0 nM
[44] = biological target: 5-hydroxytryptamine receptor 2B (Homo sapiens) (UniProt P41595); details: Compound concentration 10.0 uM
[45] = biological target: Phosphatidylinositol 5-phosphate 4-kinase type-2 beta (Homo sapiens) (UniProt P78356); details: Compound concentration 1000.0 nM

Casein kinase I isoform alpha (Homo sapiens), sequence (P48729 2-337 limits assumed): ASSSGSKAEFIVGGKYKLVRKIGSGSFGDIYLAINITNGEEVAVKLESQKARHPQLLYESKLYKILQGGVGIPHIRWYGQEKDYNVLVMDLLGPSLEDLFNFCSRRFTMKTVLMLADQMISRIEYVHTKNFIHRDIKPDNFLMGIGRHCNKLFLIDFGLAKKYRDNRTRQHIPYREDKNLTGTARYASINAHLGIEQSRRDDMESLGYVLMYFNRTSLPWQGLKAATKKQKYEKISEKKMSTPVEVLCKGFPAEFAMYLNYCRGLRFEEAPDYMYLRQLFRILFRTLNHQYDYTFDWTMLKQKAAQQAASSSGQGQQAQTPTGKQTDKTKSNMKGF
Inhibitor of nuclear factor kappa-B kinase subunit epsilon (Homo sapiens), sequence (Q14164 whole entry): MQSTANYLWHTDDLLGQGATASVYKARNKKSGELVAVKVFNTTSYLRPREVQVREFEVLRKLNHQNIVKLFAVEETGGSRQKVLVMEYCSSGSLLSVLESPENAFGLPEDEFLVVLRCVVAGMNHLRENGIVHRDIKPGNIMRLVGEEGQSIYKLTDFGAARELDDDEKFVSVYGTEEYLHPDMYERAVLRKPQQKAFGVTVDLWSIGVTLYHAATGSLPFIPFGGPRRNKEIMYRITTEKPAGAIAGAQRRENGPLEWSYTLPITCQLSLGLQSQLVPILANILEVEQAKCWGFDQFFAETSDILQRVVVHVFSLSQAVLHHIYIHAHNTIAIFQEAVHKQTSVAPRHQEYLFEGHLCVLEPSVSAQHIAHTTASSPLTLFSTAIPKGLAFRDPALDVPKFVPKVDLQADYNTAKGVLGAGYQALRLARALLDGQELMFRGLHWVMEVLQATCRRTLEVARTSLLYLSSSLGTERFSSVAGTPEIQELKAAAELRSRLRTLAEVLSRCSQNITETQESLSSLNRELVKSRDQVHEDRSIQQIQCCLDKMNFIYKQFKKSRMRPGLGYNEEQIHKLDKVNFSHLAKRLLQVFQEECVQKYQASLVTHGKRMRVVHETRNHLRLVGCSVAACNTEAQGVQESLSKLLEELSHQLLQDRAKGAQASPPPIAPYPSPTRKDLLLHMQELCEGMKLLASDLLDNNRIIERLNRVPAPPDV
Mast/stem cell growth factor receptor Kit (Homo sapiens), P10721 [V559D,V654A], sequence (P10721 whole entry V559D/V654A): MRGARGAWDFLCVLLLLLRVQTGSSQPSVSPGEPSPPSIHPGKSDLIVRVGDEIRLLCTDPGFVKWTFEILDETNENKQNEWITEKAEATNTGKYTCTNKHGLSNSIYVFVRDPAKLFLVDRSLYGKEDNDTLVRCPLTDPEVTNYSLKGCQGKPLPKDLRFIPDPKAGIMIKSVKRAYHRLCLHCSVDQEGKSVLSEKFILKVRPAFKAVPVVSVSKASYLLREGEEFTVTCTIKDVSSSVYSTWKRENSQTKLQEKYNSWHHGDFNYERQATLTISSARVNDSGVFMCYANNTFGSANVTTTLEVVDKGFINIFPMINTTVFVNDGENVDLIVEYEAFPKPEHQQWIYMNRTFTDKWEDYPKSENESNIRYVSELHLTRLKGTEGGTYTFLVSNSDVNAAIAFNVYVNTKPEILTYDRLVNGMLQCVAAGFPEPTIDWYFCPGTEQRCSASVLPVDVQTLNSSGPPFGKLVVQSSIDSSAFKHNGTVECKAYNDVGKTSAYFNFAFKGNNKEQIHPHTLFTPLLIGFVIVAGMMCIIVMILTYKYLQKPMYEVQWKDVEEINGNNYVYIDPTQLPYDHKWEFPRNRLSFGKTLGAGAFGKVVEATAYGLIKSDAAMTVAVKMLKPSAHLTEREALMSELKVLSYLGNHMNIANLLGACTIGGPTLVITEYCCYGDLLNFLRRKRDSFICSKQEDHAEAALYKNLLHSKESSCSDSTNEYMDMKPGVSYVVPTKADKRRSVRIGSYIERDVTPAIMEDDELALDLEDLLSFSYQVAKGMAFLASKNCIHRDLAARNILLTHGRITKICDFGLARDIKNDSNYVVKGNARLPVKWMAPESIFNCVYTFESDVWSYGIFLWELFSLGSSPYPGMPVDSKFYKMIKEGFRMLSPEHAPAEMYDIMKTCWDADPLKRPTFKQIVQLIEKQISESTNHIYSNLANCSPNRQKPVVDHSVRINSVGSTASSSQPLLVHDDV
Mitogen-activated protein kinase 12 (Homo sapiens), sequence (P53778 whole entry): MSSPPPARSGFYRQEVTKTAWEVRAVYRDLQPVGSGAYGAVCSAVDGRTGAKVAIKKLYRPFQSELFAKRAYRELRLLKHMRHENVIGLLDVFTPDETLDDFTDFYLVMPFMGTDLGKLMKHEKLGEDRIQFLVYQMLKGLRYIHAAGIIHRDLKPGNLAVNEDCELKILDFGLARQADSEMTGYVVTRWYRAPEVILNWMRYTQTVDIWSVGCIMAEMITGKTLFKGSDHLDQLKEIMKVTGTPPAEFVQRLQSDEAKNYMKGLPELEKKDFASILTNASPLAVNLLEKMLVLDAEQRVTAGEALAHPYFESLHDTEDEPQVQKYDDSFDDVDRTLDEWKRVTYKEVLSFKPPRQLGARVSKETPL
Muscarinic acetylcholine receptor M5 (Homo sapiens), sequence (P08912 whole entry): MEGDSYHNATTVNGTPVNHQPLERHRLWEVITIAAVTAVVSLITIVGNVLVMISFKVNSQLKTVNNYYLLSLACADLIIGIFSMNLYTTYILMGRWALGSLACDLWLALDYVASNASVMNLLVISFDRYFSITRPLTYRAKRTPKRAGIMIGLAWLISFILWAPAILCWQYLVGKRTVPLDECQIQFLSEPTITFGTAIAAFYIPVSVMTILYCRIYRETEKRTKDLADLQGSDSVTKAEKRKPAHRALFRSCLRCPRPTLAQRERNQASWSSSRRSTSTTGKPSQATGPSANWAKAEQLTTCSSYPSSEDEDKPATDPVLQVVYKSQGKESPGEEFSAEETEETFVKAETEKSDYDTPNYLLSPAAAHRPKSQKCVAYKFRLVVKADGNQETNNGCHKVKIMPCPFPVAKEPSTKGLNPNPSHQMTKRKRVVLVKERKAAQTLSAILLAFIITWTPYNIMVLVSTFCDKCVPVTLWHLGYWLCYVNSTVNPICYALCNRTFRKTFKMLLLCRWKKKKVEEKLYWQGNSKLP
High affinity nerve growth factor receptor (Homo sapiens), sequence (P04629 33-796 limits assumed): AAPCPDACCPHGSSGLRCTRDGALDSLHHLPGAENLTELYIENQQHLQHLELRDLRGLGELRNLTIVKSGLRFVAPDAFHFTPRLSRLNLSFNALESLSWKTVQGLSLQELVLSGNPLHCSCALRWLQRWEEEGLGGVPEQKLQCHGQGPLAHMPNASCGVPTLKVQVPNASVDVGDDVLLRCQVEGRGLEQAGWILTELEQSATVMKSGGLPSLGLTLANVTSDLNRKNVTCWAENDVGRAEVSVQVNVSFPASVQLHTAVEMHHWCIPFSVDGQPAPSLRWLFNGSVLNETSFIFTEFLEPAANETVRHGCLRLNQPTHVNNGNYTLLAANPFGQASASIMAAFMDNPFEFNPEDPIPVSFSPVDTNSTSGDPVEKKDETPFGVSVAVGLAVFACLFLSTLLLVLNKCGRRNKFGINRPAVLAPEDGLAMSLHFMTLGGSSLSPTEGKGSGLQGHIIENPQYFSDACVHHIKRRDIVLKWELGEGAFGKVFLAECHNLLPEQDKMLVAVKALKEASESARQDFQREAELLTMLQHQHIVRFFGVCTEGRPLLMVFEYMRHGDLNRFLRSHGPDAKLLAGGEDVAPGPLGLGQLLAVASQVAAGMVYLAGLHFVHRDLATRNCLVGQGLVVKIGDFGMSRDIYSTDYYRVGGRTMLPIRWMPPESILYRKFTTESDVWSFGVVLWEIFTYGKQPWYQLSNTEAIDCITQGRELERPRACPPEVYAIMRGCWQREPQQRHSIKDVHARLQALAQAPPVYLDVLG
Protein kinase C delta type (Homo sapiens), sequence (Q05655 whole entry, looked up): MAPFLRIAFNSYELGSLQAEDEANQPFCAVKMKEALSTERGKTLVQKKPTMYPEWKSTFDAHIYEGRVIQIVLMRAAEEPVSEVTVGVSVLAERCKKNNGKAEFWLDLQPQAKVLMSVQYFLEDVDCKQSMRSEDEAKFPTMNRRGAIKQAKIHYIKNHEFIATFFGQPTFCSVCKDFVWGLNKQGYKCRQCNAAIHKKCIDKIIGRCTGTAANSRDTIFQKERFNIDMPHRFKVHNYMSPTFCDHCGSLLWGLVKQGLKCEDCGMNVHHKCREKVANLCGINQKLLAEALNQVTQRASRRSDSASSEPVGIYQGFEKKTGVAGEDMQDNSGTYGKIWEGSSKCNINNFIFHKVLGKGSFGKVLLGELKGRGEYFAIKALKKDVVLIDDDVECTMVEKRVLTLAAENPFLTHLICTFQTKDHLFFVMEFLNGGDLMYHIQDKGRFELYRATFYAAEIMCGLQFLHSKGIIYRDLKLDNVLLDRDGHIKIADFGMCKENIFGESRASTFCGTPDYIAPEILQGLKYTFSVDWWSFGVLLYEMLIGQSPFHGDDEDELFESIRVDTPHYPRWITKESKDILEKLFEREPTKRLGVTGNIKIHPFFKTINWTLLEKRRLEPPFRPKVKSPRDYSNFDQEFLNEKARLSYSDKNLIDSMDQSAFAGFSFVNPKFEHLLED
Tyrosine-protein kinase Lck (Homo sapiens), sequence (P06239 2-509 limits assumed): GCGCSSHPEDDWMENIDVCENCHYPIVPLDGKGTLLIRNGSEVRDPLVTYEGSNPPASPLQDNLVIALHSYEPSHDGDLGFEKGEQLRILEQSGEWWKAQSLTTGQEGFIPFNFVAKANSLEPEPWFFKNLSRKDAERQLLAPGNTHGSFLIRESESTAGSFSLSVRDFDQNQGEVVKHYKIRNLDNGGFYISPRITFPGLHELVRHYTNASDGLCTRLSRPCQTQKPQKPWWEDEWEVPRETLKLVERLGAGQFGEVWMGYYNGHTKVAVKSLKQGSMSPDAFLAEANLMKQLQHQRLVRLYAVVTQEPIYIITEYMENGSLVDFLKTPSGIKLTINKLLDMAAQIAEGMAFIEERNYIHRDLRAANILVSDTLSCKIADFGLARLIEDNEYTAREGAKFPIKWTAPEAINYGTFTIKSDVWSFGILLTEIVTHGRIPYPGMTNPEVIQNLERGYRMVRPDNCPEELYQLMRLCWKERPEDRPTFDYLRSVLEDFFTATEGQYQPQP

**Q.** `CO[C@@H](C)c1c(Nc2ccc([C@H](N(C)C(=O)C3CCS(=O)(=O)CC3)C(F)(F)F)cc2)cnc2cc(Cl)nn12` [NVS-MALT1] was tested. Which residual activity [1] did it give?
**A.** 85%

**Q.** And the residual activity [2]?
**A.** 51%

**Q.** And the residual activity [3]?
**A.** 95%

**Q.** What about the residual activity [4] of the same molecule?
**A.** 100%

**Q.** And the residual activity [5]?
**A.** 63%

**Q.** And the residual activity [6]?
**A.** 88%

**Q.** And the residual activity [7]?
**A.** 100%

**Q.** And the residual activity [8]?
**A.** 100%

**Q.** What about the residual activity [9] of the same molecule?
**A.** 100%

**Q.** What about the residual activity [10] of the same molecule?
**A.** 92%

**Q.** And the inhibition [11]?
**A.** 14.6%

**Q.** What about the residual activity [12] of the same molecule?
**A.** 99%

**Q.** What about the residual activity [13] of the same molecule?
**A.** 98%

**Q.** And the residual activity [14]?
**A.** 100%

**Q.** And the residual activity [15]?
**A.** 100%

**Q.** What about the residual activity [16] of the same molecule?
**A.** 100%

**Q.** What about the residual activity [17] of the same molecule?
**A.** 100%

**Q.** And the residual activity [18]?
**A.** 100%

**Q.** What about the residual activity [19] of the same molecule?
**A.** 40%

**Q.** What about the residual activity [20] of the same molecule?
**A.** 91%

**Q.** And the residual activity [21]?
**A.** 91%

**Q.** What about the residual activity [22] of the same molecule?
**A.** 100%

**Q.** And the residual activity [23]?
**A.** 97%

**Q.** What about the residual activity [24] of the same molecule?
**A.** 88%

**Q.** And the residual activity [25]?
**A.** 100%

**Q.** What about the residual activity [26] of the same molecule?
**A.** 100%

**Q.** What about the residual activity [27] of the same molecule?
**A.** 88%

**Q.** What about the residual activity [28] of the same molecule?
**A.** 83%

**Q.** What about the residual activity [29] of the same molecule?
**A.** 100%

**Q.** What about the residual activity [30] of the same molecule?
**A.** 91%

**Q.** What about the residual activity [31] of the same molecule?
**A.** 100%

**Q.** And the residual activity [32]?
**A.** 84%

**Q.** And the residual activity [33]?
**A.** 100%

**Q.** What about the residual activity [34] of the same molecule?
**A.** 79%

**Q.** What about the residual activity [35] of the same molecule?
**A.** 60%

**Q.** What about the residual activity [36] of the same molecule?
**A.** 100%

**Q.** And the residual activity [37]?
**A.** 100%

**Q.** And the residual activity [38]?
**A.** 80%

**Q.** What about the residual activity [39] of the same molecule?
**A.** 100%

**Q.** And the residual activity [40]?
**A.** 100%

**Q.** And the residual activity [41]?
**A.** 100%

**Q.** And the residual activity [42]?
**A.** 100%

**Q.** And the residual activity [43]?
**A.** 72%

**Q.** What about the inhibition [44] of the same molecule?
**A.** -3.94%

**Q.** And the residual activity [45]?
**A.** 100%

**Q.** How did the residual activity [1] turn out when `CO[C@@H](C)c1c(Nc2ccc([C@@H](N(C)C(=O)C3CCS(=O)(=O)CC3)C(F)(F)F)cc2)cnc2cc(Cl)nn12` [NVS-MALT1-C] was run?
**A.** 59%

**Q.** What about the residual activity [2] of the same molecule?
**A.** 72%

**Q.** And the residual activity [3]?
**A.** 98%

**Q.** And the residual activity [4]?
**A.** 94%

**Q.** What about the residual activity [5] of the same molecule?
**A.** 74%

**Q.** What about the residual activity [6] of the same molecule?
**A.** 100%

**Q.** And the residual activity [7]?
**A.** 84%

**Q.** And the residual activity [8]?
**A.** 87%

**Q.** And the residual activity [9]?
**A.** 99%

**Q.** What about the residual activity [10] of the same molecule?
**A.** 88%

**Q.** And the inhibition [11]?
**A.** 7.57%

**Q.** And the residual activity [12]?
**A.** 98%

**Q.** And the residual activity [13]?
**A.** 92%

**Q.** What about the residual activity [14] of the same molecule?
**A.** 100%

**Q.** And the residual activity [15]?
**A.** 100%

**Q.** What about the residual activity [16] of the same molecule?
**A.** 65%

**Q.** What about the residual activity [17] of the same molecule?
**A.** 100%

**Q.** What about the residual activity [18] of the same molecule?
**A.** 100%

**Q.** What about the residual activity [19] of the same molecule?
**A.** 56%

**Q.** And the residual activity [20]?
**A.** 47%

**Q.** What about the residual activity [21] of the same molecule?
**A.** 74%

**Q.** And the residual activity [22]?
**A.** 100%

**Q.** And the residual activity [23]?
**A.** 78%

**Q.** And the residual activity [24]?
**A.** 87%

**Q.** What about the residual activity [25] of the same molecule?
**A.** 100%

**Q.** What about the residual activity [26] of the same molecule?
**A.** 100%

**Q.** What about the residual activity [27] of the same molecule?
**A.** 100%

**Q.** What about the residual activity [28] of the same molecule?
**A.** 84%

**Q.** What about the residual activity [29] of the same molecule?
**A.** 100%

**Q.** What about the residual activity [30] of the same molecule?
**A.** 99%

**Q.** What about the residual activity [31] of the same molecule?
**A.** 100%

**Q.** What about the residual activity [32] of the same molecule?
**A.** 96%

**Q.** And the residual activity [33]?
**A.** 100%

**Q.** What about the residual activity [34] of the same molecule?
**A.** 90%

**Q.** What about the residual activity [35] of the same molecule?
**A.** 91%

**Q.** What about the residual activity [36] of the same molecule?
**A.** 96%

**Q.** What about the residual activity [37] of the same molecule?
**A.** 99%

**Q.** What about the residual activity [38] of the same molecule?
**A.** 93%

**Q.** What about the residual activity [39] of the same molecule?
**A.** 100%

**Q.** And the residual activity [40]?
**A.** 95%

**Q.** What about the residual activity [41] of the same molecule?
**A.** 100%

**Q.** And the residual activity [42]?
**A.** 100%

**Q.** And the residual activity [43]?
**A.** 100%

**Q.** What about the inhibition [44] of the same molecule?
**A.** 9.74%

**Q.** What about the residual activity [45] of the same molecule?
**A.** 100%
